One data set deals with γ-secretase. The data set can be described thus: Cellular γ-secretase assay (Aβ42 secretion). The class given is cell-based. As to conditions: inhibition of Aβ42 secretion; human neuroglioma H4 cells overexpressing human APP; 22 hrs incubation; read-out: EC50 in vitro. As to the method: Cellular γ-Secretase Assay
Human neuroglioma H4 cells overexpressing human APP were plated at 30,000 cells/well/200 μl in 96-well plates in IMDM media containing 10% FCS, 0.2 mg/l Hygromycin B and incubated for 2 h at 37° C., 5% CO2 prior to adding test compounds.
Compounds for testing were dissolved in 100% Me2SO yielding in a 10 mM stock solution. Typically 12 μl of these solutions were further diluted in 1000 μl of IMDM media (w/o FCS,). Sub sequential 1:1 dilutions gave a ten point dose response curve. 100 μl of each dilution was added to the cells in 96-well plates. Appropriate controls using vehicle only and reference compound were applied to this assay. The final concentration of Me2SO was 0.4%.
After incubation for 22 hrs at 37° C., 5% CO2, 50 μl supernatant was transferred into round-bottom 96-well polypropylene plates for detection of Aβ42. 50 μl assay buffer (50 mM Tris/Cl, pH 7.4, 60 mM NaCl, 0.5% BSA, 1% TWEEN 20) was added to the wells followed by the addition of 100 μl of detection antibody (ruthenylated Aβ42-specific antibody BAP15 0.0625 μg/mL in assay buffer). 50 μl of a premix of capture antibody (biotinylated 6E10 antibody, 1 μg/mL) and Steptavidin-coated magnetic beads (Dynal M-280, 0.125 mg/mL) were preincubated for 1 hr at room temperature before adding the assay plates. Assay plates were incubated on a shaker for 3 hrs at room temperature and finally read in the Bioveris M8 Analyser according to the manufacturer's instructions (Bioveris).
EC50 values for inhibition of Aβ42 secretion were calculated by nonlinear regression fit analysis using XLfit 4.0 software (IDBS).

Molecules are shown by their SMILES.

On to `Cc1cn(-c2ccc(Nc3ncc4c(n3)C(c3ccc(F)cc3)CCC4)cc2F)cn1` (centres unmarked) [Example 60, [3-Fluoro-4-(4-methyl-imidazol-1-yl)-phenyl]-[8-(4-fluoro-phenyl)-5,6,7,8-tetrahydro-quinazolin-2-yl]-amine], for which the melting point (usually the temperature, or range, at which the solid turns liquid) is 201 to 203 °C. Besides, the EC50 (in general, the concentration at which the effect is half-maximal) in the data set on γ-secretase is 500 nM. `Cc1cn(-c2ccc(Nc3nc4c(s3)CCCC4c3ccc(Cl)cc3Cl)cc2F)cn1` (centres unmarked) [Example 36, [4-(2,4-Dichloro-phenyl)-4,5,6,7-tetrahydro-benzothiazol-2-yl]-[3-fluoro-4-(4-methyl-imidazol-1-yl)-phenyl]-amine] displayed a melting point of 136 to 139 °C. The EC50 with γ-secretase is 460 nM.

`Cc1cn(-c2ccc(Nc3nc4c(s3)CCCC4c3ccccc3Cl)cc2F)cn1` (centres unmarked) [Example 33, [4-(2-Chloro-phenyl)-4,5,6,7-tetrahydro-benzothiazol-2-yl]-[3-fluoro-4-(4-methyl-imidazol-1-yl)-phenyl]-amine] displayed a melting point of 204 to 206 °C. The EC50 with γ-secretase was found to be 430 nM. For the compound `COc1cc(Nc2nc3c(s2)CCCC3(C)c2ccccc2)ccc1-n1cnc(C)c1` (centres unmarked) [Example 30, [3-Methoxy-4-(4-methyl-imidazol-1-yl)-phenyl]-(4-methyl-4-phenyl-4,5,6,7-tetrahydro-benzothiazol-2-yl)-amine], the melting point fell in the range of 123 to 126 °C. Also, the EC50 in the data set with γ-secretase was 300 nM. With `Cc1cn(-c2ccc(Nc3nc4c(s3)CCCC4c3ccc(C)c(C(F)(F)F)c3)cc2F)cn1` (centres unmarked) [Example 32, [3-Fluoro-4-(4-methyl-imidazol-1-yl)-phenyl]-[4-(4-methyl-3-trifluoromethyl-phenyl)-4,5,6,7-tetrahydro-benzothiazol-2-yl]-amine], the melting point lay in the range of 160 to 163 °C. Also, in the data set on γ-secretase, the EC50 was 260 nM. Compound `COc1cc(Nc2ncc3c(n2)C(c2ccc(Cl)cc2)CCC3)ccc1-n1cnc(C)c1` (centres unmarked) [Example 50, [8-(4-Chloro-phenyl)-5,6,7,8-tetrahydro-quinazolin-2-yl]-[3-methoxy-4-(4-methyl-imidazol-1-yl)-phenyl]-amine] had a melting point of 210 to 212 °C. Also, the concentration for a half-maximal effect (EC50) with γ-secretase was 380 nM. In turn, `COc1ccccc1C1CCCc2sc(Nc3ccc(-n4cnc(C)c4)c(F)c3)nc21` (centres unmarked) [Example 35, [3-Fluoro-4-(4-methyl-imidazol-1-yl)-phenyl]-[4-(2-methoxy-phenyl)-4,5,6,7-tetrahydro-benzothiazol-2-yl]-amine] displayed a melting point of 227 to 230 °C. In addition, the EC50 in the data set on γ-secretase was 340 nM. Compound `COc1cc(Nc2ncc3c(n2)C(c2cccc(C(F)(F)F)c2)CCC3)ccc1-n1cnc(C)c1` (centres unmarked) [Example 47, [3-Methoxy-4-(4-methyl-imidazol-1-yl)-phenyl]-[8-(3-trifluoromethyl-phenyl)-5,6,7,8-tetrahydro-quinazolin-2-yl]-amine] gave a melting point of 213 to 215 °C. In turn, `COc1cc(Nc2ncc3c(n2)C(N2CCOCC2)CCC3)ccc1-n1cnc(C)c1` (centres unmarked) [Example 81, [3-Methoxy-4-(4-methyl-imidazol-1-yl)-phenyl]-(8-morpholin-4-yl-5,6,7,8-tetrahydro-quinazolin-2-yl)-amine] returned a melting point of 214 to 216 °C. Still for that read-out and setting: for `COc1cc(Nc2ncc3c(n2)C(C)(c2ccccc2)CCC3)ccc1-n1cnc(C)c1` (centres unmarked) [Example 45, [3-Methoxy-4-(4-methyl-imidazol-1-yl)-phenyl]-(8-methyl-8-phenyl-5,6,7,8-tetrahydro-quinazolin-2-yl)-amine] the value was 207 to 209 °C.

Source of the values: patent US7923450B2, “Modulators for amyloid beta” (Hoffmann-La Roche Inc., priority 2008, dated 2011).
